We go through 15 molecules from patent US20140256771A1, “COMPOUNDS THAT MODULATE INTRACELLULAR CALCIUM” (CalciMedica, Inc., priority 2011, published 2014).

The test system of one experiment is RBL-2H3 cells. In words: Fluorescence-based assay of store-operated calcium entry in RBL-2H3 cells. The format is cell-based, rat. Particulars: Rattus norvegicus, RBL-2H3; Table iv; thapsigargin store depletion; 50% inhibition of Upslope; read-out: RBL-2H3 (IC50, μmol). The method, boiled down: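 RBL-2H3 cells loaded with 1.5 μM Fluo-4-AM, preincubated with compound 5 min at RT in Ca2+-free HBSS, stores depleted with thapsigargin 25 min. Calcium re-addition (final from 12 mM 12× stock) read on FLIPR; IC50 from inhibition of fluorescence rise at 7 s (Upslope).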

The target in a further experiment is T1, Orai1/STIM1 (Homo sapiens, UniProt Q96D31).
T1 construct: expressed in transfected cells; host or cells: HEK-293
In words: Fluorescence-based assay of store-operated calcium entry in Orai1/STIM1 stable cells. It is filed as cell-based. As to conditions: Table iv; HEK-293 cells stably expressing human STIM1 and Orai1; 50% inhibition of Peak-Basal fluo-4 signal; read-out: Orai1/STIM1 (IC50, μmol). The method, boiled down:
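HEK-293 cells stably expressing human STIM1 and Orai1, fluo-4-AM loaded, preincubated 30 min at RT with compound in Ca2+-free HBSS. Calcium entry triggered by CaCl2 addition, read on FLIPR; IC50 is concentration inhibiting 50% of peak-minus-baseline fluorescence.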

The next experiment deals with STIM1 and Orai1 (Homo sapiens, UniProt Q96D31). Particulars: HEK293 cells co-expressing STIM1 and Orai1; cited from earlier work.
The subject of experiment [1] is Jurkat cells. Particulars: cited from earlier work.
Experiment [2] deals with Jurkat cells. As to conditions: cited from earlier work. This is another data set of the same source.

T1 sequence (Q96D31 whole entry): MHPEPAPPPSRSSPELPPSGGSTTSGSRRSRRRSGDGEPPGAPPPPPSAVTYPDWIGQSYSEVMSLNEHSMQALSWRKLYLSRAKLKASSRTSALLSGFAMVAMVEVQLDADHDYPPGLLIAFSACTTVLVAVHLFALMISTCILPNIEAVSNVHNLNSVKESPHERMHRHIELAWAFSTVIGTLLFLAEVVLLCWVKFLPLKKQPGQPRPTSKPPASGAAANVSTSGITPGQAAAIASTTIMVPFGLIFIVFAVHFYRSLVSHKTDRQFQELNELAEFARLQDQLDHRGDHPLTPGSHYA
STIM1 and Orai1, sequence (Q96D31 whole entry, species assumed): as the sequence (Q96D31 whole entry) above

Consider `Cn1nc(C(F)(F)F)cc1-c1ccc(NC(=O)c2ccccc2F)cc1F`, for which the IC50 with RBL-2H3 cells and on Orai1/STIM1 was below 600 nM each time.
On to `Cc1cccc(F)c1C(=O)Nc1ccc(-c2cc(C(F)(F)F)nn2C)c(F)c1`, for which the IC50 in the experiment on RBL-2H3 cells and on Orai1/STIM1 was below 600 nM each time.
With `Cn1nc(C(F)(F)F)cc1-c1ccc(NC(=O)c2c(F)ccc(F)c2F)cc1F`, the IC50 in the experiment on RBL-2H3 cells was below 600 nM; at Orai1/STIM1 it was 600 to 1200 nM.
As to `Cc1ccccc1C(=O)Nc1ccc(-c2cc(C(F)(F)F)nn2C)c(F)c1`, the IC50 with RBL-2H3 cells and at Orai1/STIM1 was below 600 nM in each case.
In the case of `Cn1nc(C(F)(F)F)cc1-c1ccc(NC(=O)c2c(F)cc(F)cc2F)cc1`, the IC50 in the experiment with RBL-2H3 cells and on Orai1/STIM1 was below 600 nM in each case.
Take `Cn1nc(C(F)(F)F)cc1-c1ccc(NC(=O)c2c(F)ccc(F)c2F)cc1`: the IC50 with RBL-2H3 cells and on Orai1/STIM1 was below 600 nM each time.
For the molecule `Cn1nc(C(F)(F)F)cc1-c1ccc(NC(=O)c2c(Cl)cnn2C)cc1`, the IC50 in the experiment with RBL-2H3 cells and on Orai1/STIM1 was below 600 nM in each case.
With `Cc1cc(C(F)(F)F)nn1-c1ccc(NC(=O)c2ccccc2F)cc1`, the IC50 in the experiment with RBL-2H3 cells and on Orai1/STIM1 was below 600 nM in each case.
`Cc1cc(C(F)(F)F)nn1-c1ccc(NC(=O)c2c(F)cccc2F)cc1`: the IC50 was below 600 nM in the experiment on RBL-2H3 cells and 600 to 1200 nM on Orai1/STIM1.
For the molecule `Cc1cc(C(F)(F)F)nn1-c1ccc(NC(=O)c2ccc(F)cc2F)cc1`, the IC50 in the experiment on RBL-2H3 cells and on Orai1/STIM1 was below 600 nM throughout.
As to `Cc1nnsc1C(=O)Nc1ccc(-n2nc(C(F)(F)F)cc2C)cc1`, the IC50 with RBL-2H3 cells is below 600 nM; at Orai1/STIM1, 600 to 1200 nM.
Turning to `Cc1cc(C(F)(F)F)nn1-c1ccc(NC(=O)c2c(F)cncc2F)cc1`, the IC50 is below 600 nM with RBL-2H3 cells and above 1200 nM on Orai1/STIM1.
Taken in the same sequence, the figures for `Cc1cc(C(F)(F)F)nn1-c1ccc(NC(=O)c2c(F)ccc(F)c2F)cc1` were below 600 nM and above 1200 nM.
Regarding `NCCOB(c1ccccc1)c1ccccc1` [2-aminoethoxydiphenylborate], the “block of store dependent Ca2+ entry” value on STIM1 and Orai1 was “completely blocked”.
In the case of `Cc1nnsc1C(=O)Nc1ccc(-n2nc(C(F)(F)F)cc2C(F)(F)F)cc1` [BTP-2], the “inhibition of SOCE” value with Jurkat cells [1] is given as “inhibits”. In addition, the inhibition of proliferation entry with Jurkat cells [2] was “inhibits”.
